Test results published in patent publication US10450260B2, “NO- and H2S-releasing compounds” (RESEARCH FOUNDATION OF THE CITY UNIVERSITY OF NEW YORK, priority 2011, dated 2019).
Where two headings read alike, the source gives them in different places. One block for each molecule: values may come before it.

Legend:
[1] = tested on: Jurkat T cell human leukemia; assay: MTT cell growth inhibition, Jurkat; assay type: cell-based; details: for IC50: Homo sapiens, Jurkat; for Ratio NSAID/NOSH-NSAID, Jurkat: fold-enhancement in potency over the parent compound
Experimental: All cells lines were grown as monolayers except for the Jurkats which were grown in suspension. […] All media were supplemented with 10% fetal calf serum (Invitrogen, Carlsbad, Calif.) penicillin (50 U/ml), and streptomycin (50 μg/ml) (Invitrogen, Carlsbad, Calif.). Cells were seeded on culture dishes at a density of 25×10^3 cells/cm^2 and incubated at 37° C. in 5% CO2 and 90% relative humidity. Single cell suspensions were obtained by trypsinization (0.05% trypsin/EDTA), and cells were counted using a hemocytometer. Viability was determined by the trypan blue dye exclusion method.
Cell growth inhibitory effect of NOSH compounds were measured using a colorimetric MTT assay kit (Roche, Indianapolis, Ind.). Cancer cells were plated in 96-well plates at a density of 50,000 cells/well. The cells were incubated for 24 h with different concentrations of NOSH compounds. After the indicated time, 10 μl of MTT dye (3-[4,5-dimethylthiazol-2-yl]-2,5-diphenyl tetrazolium bromide, 5 mg/ml in phosphate buffered saline), was added to each well, and the plates were incubated for 2 hours at 37° C. Then, the media was aspirated, and add 100 μl of the solubilization solution (10% SDS in 0.01 M HCl) was added to each well to solubilize the formant crystals. The absorbance of the plates was measured on an ELISA reader at a wavelength of 570 nm. Each sample was performed in triplicate, and the entire experiment was repeated three times.
All media were supplemented with 10% fetal calf serum (Invitrogen, Carlsbad, Calif.) penicillin (50 U/ml), and streptomycin (50 μg/ml) (Invitrogen, Carlsbad, Calif.). Cells were seeded on culture dishes at a density of 25×10^3 cells/cm^2 and incubated at 37° C. in 5% CO2 and 90% relative humidity. Single cell suspensions were obtained by trypsinization (0.05% trypsin/EDTA), and cells were counted using a hemacytometer. The final DMSO concentration was adjusted in all media to 1%. Viability was determined by the trypan blue dye exclusion method.
Cell growth inhibitory effect of all NOSH-NSAIDs was measured using a colorimetric MTT assay kit (Roche, Indianapolis, Ind.). Cancer cells were plated in 96-well plates at a density of 30,000-50,000 cells/well depending on cell type. The cells were incubated for 24 hours with different concentrations of NOSH-NSAIDs. After the indicated time, 10 μL of MTT dye (3-[4,5-dimethylthiazol-2-yl]-2,5-diphenyl tetrazolium bromide, 5 mg/mL in phosphate buffered saline), was added to each well, and the plates were incubated for 2 hours at 37° C. Then, the media was aspirated, and 100 μL of the solubilization solution (10% SDS in 0.01 M HCl) was added to each well to solubilize the formant crystals. The absorbance of the plates was measured on a spectrophotometric plate reader at a wavelength of 570 nm. Each experiment was performed in triplicate, and the entire experiment was repeated three times.

ovine COX-2 = target: T1, ovine COX-2 (Ovis aries, UniProt P79208); assay: COX-2 enzyme activity, colorimetric inhibitor screening kit; assay type: biochemical; details: for inhibition at 3000 µM: read-out: COX-2-% Inhibition, 3 mM (Table 8)
T1 construct: purchased Cayman Chemicals (Ann Arbor, Mich.)
T1 sequence (P79208 17-603): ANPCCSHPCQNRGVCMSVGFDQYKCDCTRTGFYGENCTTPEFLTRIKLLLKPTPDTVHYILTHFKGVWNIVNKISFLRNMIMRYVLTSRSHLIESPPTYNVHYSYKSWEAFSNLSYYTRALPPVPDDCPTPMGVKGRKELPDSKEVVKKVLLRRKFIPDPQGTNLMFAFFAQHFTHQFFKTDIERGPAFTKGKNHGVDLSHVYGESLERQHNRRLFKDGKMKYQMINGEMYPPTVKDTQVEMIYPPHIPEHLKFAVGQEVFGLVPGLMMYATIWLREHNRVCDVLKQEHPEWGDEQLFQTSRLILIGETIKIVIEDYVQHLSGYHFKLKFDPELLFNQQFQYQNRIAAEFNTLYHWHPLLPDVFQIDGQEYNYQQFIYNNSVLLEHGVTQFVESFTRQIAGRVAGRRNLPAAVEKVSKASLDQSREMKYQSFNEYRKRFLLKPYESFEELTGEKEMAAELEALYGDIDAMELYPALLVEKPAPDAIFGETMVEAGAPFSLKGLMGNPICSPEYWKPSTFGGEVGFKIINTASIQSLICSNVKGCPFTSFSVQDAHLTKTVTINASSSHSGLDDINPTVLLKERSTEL

IC50 ([1]; 24 hours): 90 ± 5 nM
SMILES: O=C(CCC(=O)Oc1ccccc1C(=O)Oc1ccc(-c2cc(=S)ss2)cc1)OCCCCO[N+](=O)[O-] [NOSH-2, 4-(nitrooxy)butyl (2-((4-(3-thioxo-3H-1,2-dithiol-5-yl)phenoxy)carbonyl)phenyl) succinate]

SMILES: COc1ccc2cc([C@H](C)C(=O)O)ccc2c1 [naproxen, reference compound]
COX-2-% Inhibition (ovine COX-2; 3 mM (Table 8)): 70.2% | inhibition at 3000 µM (ovine COX-2): 68.6% | inhibition at 6000 µM (ovine COX-2; read-out: COX-2-% Inhibition, 6 mM (Table 8)): 74.6%

IC50 ([1]; 24 hours): 7000 ± 321 nM
SMILES: NC(=S)c1ccc(OC(=O)c2ccccc2OC(=O)CCCO[N+](=O)[O-])cc1 [NOSH-3, 4-carbamothioylphenyl 2-((4-(nitrooxy)butanoyl)-oxy)benzoate]

SMILES: O=C(CCCO[N+](=O)[O-])Oc1ccccc1C(=O)Oc1ccc(-c2cc(=S)ss2)cc1 [NOSH-1, 4-(3-thioxo-3H-1,2-dithiol-5-yl)phenyl 2-((4-(nitrooxy)butanoyl)oxy)benzoate]
IC50 ([1]; 24 hours): 100 ± 8 nM | inhibition at 0.025 µM (ovine COX-2; 25 nM (Table 6)): 5.4 ± 0.7% | inhibition at 0.05 µM (ovine COX-2; 50 nM (Table 6)): 14.5 ± 1% | inhibition at 0.05 µM (ovine COX-2; 50 nM (Table 8)): 23.3% | COX-2-% Inhibition (ovine COX-2; 50 nM (Table 8), listed as NOSH-ASA, 0.05 µM): 20.9% | inhibition at 0.1 µM (ovine COX-2; 100 nM (Table 6)): 27.2 ± 0.7% | inhibition at 0.1 µM (ovine COX-2; 100 nM (Table 8)): 29.1%

SMILES: CC(=O)Oc1ccccc1C(=O)O [ASA, aspirin, reference compound]
COX-2-% Inhibition (ovine COX-2; 1 mM, 15 min at 4° C. (Table 8)): 70.2% | inhibition at 1000 µM (ovine COX-2; read-out: COX-2 % Inhibition, 1 mM (Table 6)): 50.6 ± 1.1% | inhibition at 1000 µM (ovine COX-2; read-out: COX-2-% Inhibition, 1 mM, 15 min at 4° C. (Table 8)): 68.4% | inhibition at 3000 µM (ovine COX-2): 74.6%

SMILES: CC(C(=O)Oc1ccc(-c2cc(=S)ss2)cc1)c1ccc2cc(OC(=O)CCCO[N+](=O)[O-])ccc2c1 (stereo not drawn) [NOSH-7, 6-(1-oxo-1-(4-(3-thioxo-3H-1,2-dithiol-5-yl)phenoxy)propan-2-yl)naphthalen-2-yl 4-(nitrooxy)butanoate]
IC50 ([1]; 24 hours (Table 7)): 100 nM | Ratio NSAID/NOSH-NSAID, Jurkat [1]: 25,500 | inhibition at 0.08 µM (ovine COX-2; 80 nM (Table 8)): 18.8% | COX-2-% Inhibition (ovine COX-2; 80 nM (Table 8), listed as NOSH-NAPROXEN, 0.08 µM): 15.8% | inhibition at 0.16 µM (ovine COX-2; 160 nM (Table 8)): 11%

IC50 ([1]; 24 hours): 240 ± 11 nM
SMILES: O=C(CCCC[C@@H]1CCSS1)Oc1ccccc1C(=O)OCCCCO[N+](=O)[O-] [NOSH-4, (R)-4-(nitrooxy)butyl 2-((5-(1,2-dithiolan-3-yl)pentanoyl)oxy)benzoate]

SMILES: CC1=C(CC(=O)Oc2ccc(OC(=O)CCCO[N+](=O)[O-])c(C(=O)Oc3ccc(-c4cc(=S)ss4)cc3)c2)c2cc(F)ccc2/C1=C/c1ccc([S+](C)[O-])cc1 (stereo not drawn) [NOSH-8, (E)-4-(3-thioxo-3H-1,2-dithiol-5-yl)phenyl 5-(2-(5-fluoro-2-methyl-1-(4-(methylsulfinyl)benzylidene)-1H-inden-3-yl)acetoxy)-2-((4-(nitrooxy)butanoyl)oxy)benzoate]
IC50 ([1]; 24 hours (Table 7)): 270 nM | Ratio NSAID/NOSH-NSAID, Jurkat [1]: 2,588 | inhibition at 0.089 µM (ovine COX-2; 89 nM (Table 8)): 13.6% | COX-2-% Inhibition (ovine COX-2; 89 nM (Table 8), listed as NOSH-SULINDAC, 0.089 µM): 12.3%

IC50 ([1]; 24 hours (Table 7)): 699000 nM | inhibition at 800 µM (ovine COX-2; 800 μM (Table 8)): 66.8% | COX-2-% Inhibition (ovine COX-2; 800 μM (Table 8), 800 µM): 68.5% | inhibition at 1600 µM (ovine COX-2; 1600 μM (Table 8)): 71.1%
SMILES: CC1=C(CC(=O)O)c2cc(F)ccc2/C1=C\c1ccc([S+](C)[O-])cc1 (stereo not drawn) [sulindac, reference compound]
